# In patent US20220047569A1, “METHOD AND COMPOUND FOR USE, IN TREATING AND/OR PREVENTING NETOSIS” (Jubilant EpiPad LLC, priority 2020, published 2022):
# Columns and labels:
# DSS-induced colitis = experiment: Dextran sulfate sodium (DSS) induced colitis model; type: in vivo, C57BL/6 male mice; conditions: PO BID
# Excerpt: Ulcerative colitis (UC) is an intermittent inflammatory bowel disease of the colonic mucosa, with periods of exacerbated symptoms (the active phase of the disease), and periods that are relatively symptom-free (remission phase of disease). Among various chemical induced colitis models, DSS-induced colitis model is widely used because of its simplicity and many similarities with human ulcerative colitis. C57BL/6 male mice at 6-8 weeks of age were purchased from vivo biotech India (under the license from Taconic). The procedures involving the care and use of animals in the study was reviewed and approved by the Institutional Animal Care and Use Committee (IAEC/JDC/2018-161R) prior to conduct. During the study, the care and use of animals was in accordance with the principles outlined in the Guide for the Care and Use of Laboratory Animals, 8th Edition, 2010 (National Research Council) and every effort was made to minimize suffering. The animals were acclimatized for ˜10 days prior to experimental use. Mice were caged with free access to food and fresh water in a temperature-controlled room (22° C.-24° C.) on a 12 h light/dark cycle. On the day of DSS administration (day 0), labelled (using ear punch or any other convenient method) groups of control and experimental mice should be weighed and, if required, average group weight equilibrated so as to eliminate any significant weight difference between groups. Normal control animals were provided with regular drinking water and disease control animals were provided with 2.25% DSS in drinking water for 5 days (Day 1 to Day 5) and next 5 days, both the groups received regular drinking water (Day 6 to Day 10). DSS was replaced with fresh DSS formulation once in 2.5 days. Animals were dosed with Vehicle (0.5% Methyl cellulose in PBS+0.025% Tween-80), Compound 143, PO, bid and Fingolimod, PO, qd. Administration of 2.25% DSS in drinking water induced significant ulcerative colitis leading to ˜5-fold disease induction in mice of disease control group compared to normal control. […]
# [1] = tested on: Histone H3 Citrullination in Neutrophils; experiment: Citrullination ELISA (Citrullinated Histone H3) in calcium ionophore stimulated neutrophils; type: cell-based; conditions: Neutrophil; human neutrophils, 25 μM calcium ionophore, CitH3 ELISA
# Outline: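 Freshly isolated human donor neutrophils in RPMI with 2% BSA and 1 mM CaCl2 were pre-incubated 30 min with compound (10, 1, 0.1 μM), then stimulated 30 min with 25 μM calcium ionophore. After S7 nuclease digestion, lysates were assayed by citrullinated histone H3 ELISA (450 nm); IC50 from sigmoidal fits.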
smiles,measurement,setting,value
"N[C@@H]1CCCN(C(=O)c2cc3c4c(c2)nc(-c2cc5cccc(Cl)c5n2CC2CC2)n4CCO3)C1 [Compound 143, (R)-(3-aminopiperidin-1-yl)(2-(7-chloro-1-(cyclopropylmethyl)-1H-indol-2-yl)-3,4-dihydro-5-oxa-1,2a-diazaacenaphthylen-7-yl)methanone]",Disease reversal compared to disease control,DSS-induced colitis; 12.5 mg/kg,8.7%
same,Disease reversal compared to disease control,DSS-induced colitis; 25 mg/kg,26.6%
same,Disease reversal compared to disease control,DSS-induced colitis; 50 mg/kg,45.5%
same,IC50,[1],100 to 1000 nM
